Earlier results on one molecule are cited in patent publication US8728489B2, “Immunotherapy for chronic hepatitis C virus infection” (priority 2008, dated 2014).

The conditions of series [1]: in vivo.

`NC(=O)c1ncn([C@@H]2O[C@H](CO)[C@@H](O)[C@H]2O)n1` [Ribavirin, 1-(beta)-D-ribofuranosyl-1H-1,2,4-triazole-3-carboxamide]: the “solubility in anhydrous alcohol” value is “slightly soluble” and the solubility in water result is on record as “freely soluble”. The “patients with hemolytic anemia” value in series [1] is given as 20-30%.
